From patent publication EP0863156A1, “Peptides useful as somatostatin antagonists” (American Cyanamid Company, priority 1997, dated 1998)
Square brackets hold non-standard residues; d marks the D form. Peptide text beside a SMILES is read from it.

Experiments:
[1] = test system: spontaneous growth hormone secretory pulses; test: Spontaneous growth hormone secretory pulses in conscious rats under intravenous infusion; format: in vivo, Male Sprague-Dawley rats; settings: Figure 5
Procedure: Evaluation in conscious rats. Male Sprague-Dawley rats are fitted so as to allow efficient intravenous treatment with control and test compounds as well as frequent blood sampling. Blood samples are tested for growth hormone (GH) levels by radioimmunoassay. Blood samples are taken over a 12 hour period. At a 6 hour time point, peptide 1 is infused intravenously (300 µg/hr) into conscious, freely moving male rats for two hours. Control animals receive saline infusions over the same time period. […] It is known, SRIF is required for growth hormone pulsatility and that an SRIF antagonist abolishes said pulsatility (see Tannenbaum, G.S. and Ling, N., Endocrinology, 115, 1952-1957, 1984, incorporated herein by reference).

SSTR2 [2] = biological target: T1, SSTR2 (Rattus norvegicus, UniProt P30680); test: Competitive binding of 125I labeled S-14 to membranes of cells expressing transfected SSTR2 (SPA); design: expressed in transfected cells
T1 sequence (P30680 whole entry): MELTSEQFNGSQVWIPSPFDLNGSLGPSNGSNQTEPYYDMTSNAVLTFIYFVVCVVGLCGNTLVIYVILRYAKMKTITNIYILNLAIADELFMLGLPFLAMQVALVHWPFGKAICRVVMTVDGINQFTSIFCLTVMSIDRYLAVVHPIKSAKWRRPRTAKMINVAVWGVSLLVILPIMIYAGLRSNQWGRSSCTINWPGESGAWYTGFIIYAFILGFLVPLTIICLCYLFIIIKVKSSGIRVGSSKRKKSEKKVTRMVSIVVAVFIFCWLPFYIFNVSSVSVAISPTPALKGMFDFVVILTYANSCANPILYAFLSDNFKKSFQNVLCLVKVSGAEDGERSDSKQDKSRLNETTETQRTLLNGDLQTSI
Procedure: Membrane preparation. Tissue culture cell lines expressing transfected cDNA clones of SSTR2 and SSTR5 are used as a source of plasma membranes which specifically bind ^125I labeled S-14 (Amersham, Arlington Heights, IL). Cells are removed from culture dishes by incubation at 4°C for 5 minutes in PBS containing 1 mM EDTA, spun down (2,000 rpm, 5') and resuspended in 15 mL homogenization buffer (1 mM sodium bicarbonate pH 7.2, 1 mM EDTA, 1 mM EGTA and the following protease inhibitors: leupeptin and aprotenin at 5 µg/mL and benzamidine and bacitracin at 100 µg/mL). Cells are given 20 strokes with a Dounce homogenizer on ice and spun at 2000 rpm for 10 minutes. Membranes are isolated from the supernatant by centrifugation at 17,000 rpm for 30 minutes. The membrane pellet is washed once in 15 mL homogenization buffer and once in storage buffer (25 mM Tris pH 7.4 containing protease inhibitors). […] The membrane pellet is resuspended in storage buffer, measured for protein concentration (BioRad, CA) and stored at -80°C.
Binding assay. […] Bound radioligand is determined by counting in a Microbeta Liquid Scintillation counter (Wallac, Gaithersburg, MD). Binding data is plotted and IC50 and Ki values are calculated for test compounds using Prism software (Graphpad Software Inc., San Diego, CA) and are shown in Table V. Binding is expressed as Ki, µM.

[3] = test system: serum growth hormone (GH) levels; test: In vivo serum growth hormone levels in anaesthetized rats (radioimmunoassay); design: species or system Male Sprague-Dawley rats; settings: for SGH: i.v., BIM 23014C 10 µg at 60 min
Procedure: (§1) Evaluation in anaesthetized rats. Male Sprague-Dawley rats are anaesthetized with Sagatal and fitted so as to allow efficient intravenous treatment with control and test compounds as well as frequent blood sampling. Blood samples are tested for growth hormone (GH) levels by radioimmunoassay. Thirty minutes after the initiation of blood sampling, rats are given 5 µg, 25 µg or 50 µg of peptide 1.
(§2) Peptide 1 is tested in combination with growth hormone releasing factor (GRF), to investigate whether said peptide may be mimicking the action of GRF. Anaesthetized rats are given GRF (1 µg) alone and in combination with peptide 1 (50 µg). […]

SSTR2 [4] = biological target: T1, SSTR2; test: cAMP accumulation in forskolin-stimulated GH4C1/SSTR2 cells (SPA radioimmunoassay); format: cell-based; design: expressed in transfected cells; host or cells: GH4C1 rat pituitary tumor cells
Procedure: This is the basis of a common assay for SRIF agonists and antagonists, whereby SRIF agonists reduce artificially stimulated cAMP levels, and SRIF antagonists reverse the effect of SRIF. […] This increases the response to SRIF and provides a greater dynamic range for the measurement of SRIF antagonist activity.
Stimulation of cells. GH4C1/SSTR2 cells, grown in DMEM with 10% bovine serum, are released from a tissue culture dish by incubation for several minutes at 37° C with PBS containing 0.5 mM EDTA. Cells are washed in induction buffer (PBS containing 100 µM IBMX (an inhibitor of cAMP breakdown) and 2 mM CaCl2) at room temperature, and resuspended at 2 x 10^6/mL in induction buffer. Into each well of a 96-well tray are added 50 µL of a 2 X concentration of stimulants in induction buffer. […] To initiate stimulation of the cells, 50 µL (100,000) cells are added to each well, mixed by shaking 10 seconds on a plate shaker and placed at 37° C for 15 minutes. Stimulation is arrested and cells are lysed by adding 15 µL 0.33 N HCI to each well and incubating the plate for 30 minutes at 37° C. Samples are neutralized by addition of 15 µL 0.25 N NaOH/50 mM Hepes pH 7.4. Baseline cAMP levels are determined in samples with no added forskolin or SRIF, and each treatment is performed in triplicate.
cAMP assay. To measure accumulated cAMP in the samples, a radioimmunoassay is employed. The scintillation proximity assay (SPA, Amersham, Arlington Heights, IL) allows the rapid measurement of ^125I cAMP bound to a specific antibody without separating bound radioligand from free radioligand. Each of the following reagents (15 µL) are added per well in a 96-well tray: supernatants from the cell stimulation; ^125I cAMP; SPA beads conjugated to monkey anti-rabbit IgG antibodies; and rabbit anti-cAMP antibodies. For the standard curve, known amounts of cAMP (0.2 - 12.8 pmol) are added in place of cell supernatants. The 96-well tray is sealed, shaken at room temperature overnight and measured for bound radioligand in a MicroBeta liquid scintillation counter (Wallac, Gaithersburg. MD).
The intrinsic activity of an SRIF antagonist is the percent reversal of the SSTR2 activation by SRIF or MK678, wherein 0% is defined by cAMP levels in samples treated with forskolin plus SRIF or MK678 and 100% is the cAMP level measured after treatment with forskolin alone. Therefore, increased intrinsic activity of a test compound indicates increased antagonist activity of said test compound.
An inverse agonist is a compound that is not only a pure antagonist (i.e. lacking agonist activity), but also blocks the constitutive activity of an unoccupied receptor. One indication of inverse agonist activity is the ability of a SRIF antagonist to increase cAMP levels in the absence of added SRIF.

Male Sprague-Dawley rats = test: Serum growth hormone levels in anaesthetized rats after intravenous treatment (radioimmunoassay); format: in vivo; settings: for SGH: GRF 1 µg + Peptide 1 50 µg at 30 min
Procedure: as §1, §2

Ki (SSTR2 [2]): 0.14 µM
cAMP (SSTR2 [4]; Forskolin 1.25 µM + MK 678 10 nM + Peptide 1 1 µM (forskolin + MK 678 alone 0.91)): 1.14 pM per 4 x 10^4 cells
cAMP (SSTR2 [4]; Forskolin 1.25 µM + MK 678 10 nM + Peptide 1 10 µM (forskolin + MK 678 alone 0.91)): 2.69 pM per 4 x 10^4 cells
cAMP (SSTR2 [4]; Forskolin 1.25 µM + MK 678 10 nM + Peptide 1 50 µM (forskolin + MK 678 alone 0.91)): 3.32 pM per 4 x 10^4 cells
cAMP (SSTR2 [4]; Forskolin 1.25 µM, no MK 678, Peptide 1 1 µM (forskolin alone 3.04; baseline 0.36)): 2.57 pM per 4 x 10^4 cells
cAMP (SSTR2 [4]; Forskolin 1.25 µM, no MK 678, Peptide 1 10 µM (forskolin alone 3.04; baseline 0.36)): 3.05 pM per 4 x 10^4 cells
cAMP (SSTR2 [4]; Forskolin 1.25 µM, no MK 678, Peptide 1 50 µM (forskolin alone 3.04; baseline 0.36)): 3.33 pM per 4 x 10^4 cells
Emax at 2 µM (SSTR2 [4]; GH4-C1, test peptide 2 µM, percent reversal of SSTR2 activation by SRIF or MK678, 0% = forskolin plus agonist, 100% = forskolin alone, read-out: cAMP Assay Intrinsic activity): 85.2%
SMILES: CC[C@@H](C)[C@@H](NC(=O)[C@@H](Cc1ccccc1)NC(=O)[C@@H](Cc1c[nH]cn1)NC(C)=O)C(=O)N[C@H](CCCNC(=N)N)C(=O)N[C@H](Cc1c[nH]c2ccccc12)C(=O)N[C@H](Cc1ccccc1)C(N)=O [Peptide 1, Ac-D-His-D-Phe-D-Ile-D-Arg-D-Trp-D-Phe-NH2] (Ac-[dH][dF][dI][dR][dW][dF]-NH2)
growth hormone secretory pulses upon withdrawal ([1]; conscious male rats, after end of the two hour infusion of 300 µg/hr): the pulses resume synchronously, and gradually desynchronize with time
spontaneous growth hormone secretory pulses during infusion ([1]; conscious, freely moving male rats, 300 µg/hr intravenously for two hours from 6 hour time point): abolition of these pulses
effect upon GH levels ([3]; 5 µg, 25 µg or 50 µg of peptide 1 thirty minutes after initiation of blood sampling): dose related effect upon GH levels
serum GH levels after first dose ([3]; highest dose (50 µg) of peptide 1 at 30 min): significant increase in serum GH levels
SGH ([3]; Peptide 1 5 µg at 30 and 90 min, time 0 min (before dosing)): 17.0 ng/mL
SGH ([3]; Peptide 1 5 µg at 30 and 90 min, time 15 min (before dosing)): 13.6 ng/mL
SGH ([3]; Peptide 1 5 µg at 30 and 90 min, time 30 min (time of first dose)): 12.2 ng/mL
SGH ([3]; Peptide 1 5 µg at 30 and 90 min, time 35 min): 17.5 ng/mL
SGH ([3]; Peptide 1 5 µg at 30 and 90 min, time 40 min): 14.9 ng/mL
SGH ([3]; Peptide 1 5 µg at 30 and 90 min, time 45 min): 15.7 ng/mL
SGH ([3]; Peptide 1 5 µg at 30 and 90 min, time 60 min (time of BIM dose)): 11.4 ng/mL
SGH ([3]; Peptide 1 5 µg at 30 and 90 min, time 75 min): 7.0 ng/mL
SGH ([3]; Peptide 1 5 µg at 30 and 90 min, time 90 min (time of second dose)): 2.4 ng/mL
SGH ([3]; Peptide 1 5 µg at 30 and 90 min, time 95 min): 3.1 ng/mL
SGH ([3]; Peptide 1 5 µg at 30 and 90 min, time 100 min): 1.7 ng/mL
SGH ([3]; Peptide 1 5 µg at 30 and 90 min, time 105 min): 1.7 ng/mL
SGH ([3]; Peptide 1 5 µg at 30 and 90 min, time 135 min): 1.1 ng/mL
SGH ([3]; Peptide 1 25 µg at 30 and 90 min, time 0 min (before dosing)): 19.2 ng/mL
SGH ([3]; Peptide 1 25 µg at 30 and 90 min, time 15 min (before dosing)): 17.3 ng/mL
SGH ([3]; Peptide 1 25 µg at 30 and 90 min, time 30 min (time of first dose)): 16.6 ng/mL
SGH ([3]; Peptide 1 25 µg at 30 and 90 min, time 35 min): 18.4 ng/mL
SGH ([3]; Peptide 1 25 µg at 30 and 90 min, time 40 min): 17.5 ng/mL
SGH ([3]; Peptide 1 25 µg at 30 and 90 min, time 45 min): 14.0 ng/mL
SGH ([3]; Peptide 1 25 µg at 30 and 90 min, time 60 min (time of BIM dose)): 13.1 ng/mL
SGH ([3]; Peptide 1 25 µg at 30 and 90 min, time 75 min): 6.8 ng/mL
SGH ([3]; Peptide 1 25 µg at 30 and 90 min, time 90 min (time of second dose)): 5.1 ng/mL
SGH ([3]; Peptide 1 25 µg at 30 and 90 min, time 95 min): 11.4 ng/mL
SGH ([3]; Peptide 1 25 µg at 30 and 90 min, time 100 min): 10.5 ng/mL
SGH ([3]; Peptide 1 25 µg at 30 and 90 min, time 105 min): 7.9 ng/mL
SGH ([3]; Peptide 1 25 µg at 30 and 90 min, time 135 min): 5.2 ng/mL
SGH ([3]; Peptide 1 50 µg at 30 and 90 min, time 0 min (before dosing)): 22.7 ng/mL
SGH ([3]; Peptide 1 50 µg at 30 and 90 min, time 15 min (before dosing)): 17.0 ng/mL
SGH ([3]; Peptide 1 50 µg at 30 and 90 min, time 30 min (time of first dose)): 19.7 ng/mL
SGH ([3]; Peptide 1 50 µg at 30 and 90 min, time 35 min): 50.2 ng/mL
SGH ([3]; Peptide 1 50 µg at 30 and 90 min, time 40 min): 23.4 ng/mL
SGH ([3]; Peptide 1 50 µg at 30 and 90 min, time 45 min): 15.5 ng/mL
SGH ([3]; Peptide 1 50 µg at 30 and 90 min, time 60 min (time of BIM dose)): 17.1 ng/mL
SGH ([3]; Peptide 1 50 µg at 30 and 90 min, time 75 min): 3.5 ng/mL
SGH ([3]; Peptide 1 50 µg at 30 and 90 min, time 90 min (time of second dose)): 1.9 ng/mL
SGH ([3]; Peptide 1 50 µg at 30 and 90 min, time 95 min): 67.3 ng/mL
SGH ([3]; Peptide 1 50 µg at 30 and 90 min, time 100 min): 31.8 ng/mL
SGH ([3]; Peptide 1 50 µg at 30 and 90 min, time 105 min): 10.5 ng/mL
SGH ([3]; Peptide 1 50 µg at 30 and 90 min, time 135 min): 2.6 ng/mL
serum GH levels after second dose ([3]; second dose of peptide 1, highest dose (50 µg), after BIM 23014C): even greater increase in serum GH levels
forskolin-stimulated cAMP levels in the absence of SRIF (inverse agonist activity) (SSTR2 [4]; GH4C1/SSTR2 cells, no added SRIF, Figure 1 (Table II) and Figure 2 (Table IV)): causes an increase in forskolin-stimulated cAMP levels even in the absence of SRIF
parallelism of the dose response curves of S-14 or MK678 with and without peptide 1 (SSTR2 [4]; forskolin stimulated cells, increasing doses of S-14 or MK678, Figure 2 (Table IV)): directly competing with the SRIF agonists
SGH (Male Sprague-Dawley rats; time 35 min): 195.8 ng/mL
SGH (Male Sprague-Dawley rats; time 40 min): 176.2 ng/mL
SGH (Male Sprague-Dawley rats; time 45 min): 40.5 ng/mL
GH levels (Male Sprague-Dawley rats; GRF (1 µg) in combination with peptide 1 (50 µg), compared with GRF alone): rise faster and higher than with GRF alone
